What was measured:
fibrinogen = molecular target: T1, fibrinogen (Bos taurus, UniProt P02672+P02676+P12799); test: SPR adsorption of fibrinogen to SAMs / grafted polymer films; assay type: binding, bovine; conditions: for % Fiboff (percent decrease in adsorbed protein during 10 minute PBS wash) / dR/dton fibrinogen (maximum initial rate of adsorption) / % MLfib 3 min / % MLfib 30 min: mixed SAM —CONRR′/—CO2H; for % MLfib 3 min: 1 mg/mL fibrinogen flowed 3 min, relative to —CONH(CH2)10CH3/—CO2H SAM; for % MLfib 30 min: 1 mg/mL fibrinogen flowed 30 min; for % ML 30 min / dR/dt on / % ML 3 min: fibrinogen; for % ML 30 min / dR/dt on / % Fib off: single-component SAMs (a) and mixed SAMs (b); for % ML 3 min: single-component SAMs (a, RSH) and mixed SAMs (b, RNH2)
T1 sequence (P02672 20-615): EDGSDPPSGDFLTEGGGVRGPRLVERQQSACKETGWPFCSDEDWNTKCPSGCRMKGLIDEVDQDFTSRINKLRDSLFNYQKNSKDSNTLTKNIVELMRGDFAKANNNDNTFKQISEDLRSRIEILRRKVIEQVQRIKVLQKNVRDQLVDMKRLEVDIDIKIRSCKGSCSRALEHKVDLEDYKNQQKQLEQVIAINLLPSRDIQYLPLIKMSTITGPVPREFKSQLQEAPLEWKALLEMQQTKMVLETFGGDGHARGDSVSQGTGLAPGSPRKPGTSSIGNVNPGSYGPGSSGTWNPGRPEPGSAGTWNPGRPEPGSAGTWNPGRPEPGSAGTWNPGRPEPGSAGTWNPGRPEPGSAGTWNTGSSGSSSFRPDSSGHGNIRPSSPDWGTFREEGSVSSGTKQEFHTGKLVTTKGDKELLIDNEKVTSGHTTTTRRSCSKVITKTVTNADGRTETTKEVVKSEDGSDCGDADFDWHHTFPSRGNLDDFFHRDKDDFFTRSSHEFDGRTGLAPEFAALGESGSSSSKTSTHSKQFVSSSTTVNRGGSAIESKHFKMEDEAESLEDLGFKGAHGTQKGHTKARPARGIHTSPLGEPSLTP
T1 sequence (P02676 1-468): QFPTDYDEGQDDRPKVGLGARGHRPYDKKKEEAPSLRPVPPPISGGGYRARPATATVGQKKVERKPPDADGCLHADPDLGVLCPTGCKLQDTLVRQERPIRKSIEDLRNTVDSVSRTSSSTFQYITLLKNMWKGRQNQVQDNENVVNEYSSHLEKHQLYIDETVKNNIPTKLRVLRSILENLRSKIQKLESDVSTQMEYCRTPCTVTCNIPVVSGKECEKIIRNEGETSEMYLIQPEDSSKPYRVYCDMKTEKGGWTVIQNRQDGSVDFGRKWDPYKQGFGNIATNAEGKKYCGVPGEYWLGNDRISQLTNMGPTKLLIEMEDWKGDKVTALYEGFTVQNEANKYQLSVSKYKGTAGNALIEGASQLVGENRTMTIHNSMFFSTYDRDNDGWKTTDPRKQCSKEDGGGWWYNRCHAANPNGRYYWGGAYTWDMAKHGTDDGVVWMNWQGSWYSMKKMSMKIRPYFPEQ
T1 sequence (P12799 25-444): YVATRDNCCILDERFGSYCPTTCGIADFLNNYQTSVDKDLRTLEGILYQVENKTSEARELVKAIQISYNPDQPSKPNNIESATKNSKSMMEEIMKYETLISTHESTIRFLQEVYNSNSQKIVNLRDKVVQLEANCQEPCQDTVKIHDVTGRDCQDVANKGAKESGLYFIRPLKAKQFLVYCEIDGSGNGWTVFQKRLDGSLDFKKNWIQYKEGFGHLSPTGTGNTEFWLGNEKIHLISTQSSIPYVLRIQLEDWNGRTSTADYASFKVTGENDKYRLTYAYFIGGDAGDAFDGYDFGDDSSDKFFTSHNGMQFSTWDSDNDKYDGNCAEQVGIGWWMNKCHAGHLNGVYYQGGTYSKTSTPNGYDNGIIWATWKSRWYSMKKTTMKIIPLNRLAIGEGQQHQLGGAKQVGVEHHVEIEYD

lysozyme = lysozyme (Gallus gallus, UniProt P00698); test: SPR adsorption of lysozyme to SAMs / grafted polymer films; assay type: binding; conditions: for % Lysoff (percent decrease in adsorbed protein during 10 minute PBS wash) / dR/dton lysozyme (maximum initial rate of adsorption) / % MLlys 3 min / % MLlys 30 min: mixed SAM —CONRR′/—CO2H; for % MLlys 3 min: 1 mg/mL lysozyme flowed 3 min; for % MLlys 30 min: 1 mg/mL lysozyme flowed 30 min; for % ML 3 min / dR/dt on: lysozyme; for % ML 3 min / dR/dt on / % Lys off: single-component SAMs (a) and mixed SAMs (b)
lysozyme, sequence (P00698 19-147): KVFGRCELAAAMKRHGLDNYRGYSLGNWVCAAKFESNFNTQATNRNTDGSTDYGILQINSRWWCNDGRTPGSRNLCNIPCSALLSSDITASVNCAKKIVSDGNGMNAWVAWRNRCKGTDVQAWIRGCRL

| Structure (SMILES) | % Fiboff (percent decrease in adsorbed protein during 10 minute PBS wash) (fibrinogen) [%] | dR/dton fibrinogen (maximum initial rate of adsorption) (fibrinogen) [RU/sec] | % MLfib 3 min (fibrinogen) [%] | % MLfib 30 min (fibrinogen) [%] | % Lysoff (percent decrease in adsorbed protein during 10 minute PBS wash) (lysozyme) [%] | dR/dton lysozyme (maximum initial rate of adsorption) (lysozyme) [RU/sec] | % MLlys 3 min (lysozyme) [%] | % MLlys 30 min (lysozyme) [%] | % ML 30 min (fibrinogen) [%] | dR/dt on (fibrinogen) [RU/sec] | % ML 3 min (fibrinogen) [%] | % Fib off (fibrinogen) [%] | % ML 3 min (lysozyme; footnote b (30 minutes)) [%] | % ML 3 min (lysozyme) [%] | dR/dt on (lysozyme) [RU/sec] | % Lys off (lysozyme) [%] |
| --- | --- | --- | --- | --- | --- | --- | --- | --- | --- | --- | --- | --- | --- | --- | --- | --- |
| CNCCNC | 7.5 ± 0.4 | 77 ± 30 | 4.4 ± 0.8 | 8.5 ± 0.0 | 110 ± 5 | 110 ± 60 | 4.3 ± 0.1 | 7.8 ± 0.0 |  |  |  |  |  |  |  |  |
| CC(=O)NCCN | 13 ± 1 | 50 ± 5 | 14 ± 1 | 40 ± 2 | 580 ± 20 | 530 ± 120 | 1.4 ± 0.0 | 5.4 ± 0.3 |  |  |  |  |  |  |  |  |
| CN(C)C(=O)CN | 19 ± 0.2 | 202 ± 80 | 18 ± 0.5 | 33 ± 0.5 | 350 ± 10 | 590 ± 270 | 7.2 ± 1 | 15 ± 1 |  |  |  |  |  |  |  |  |
| CNCC(=O)N(C)C | 28 ± 0.7 | 50 ± 23 | 1.0 ± 0.0 | 9.1 ± 0.3 | 740 ± 9 | 290 ± 130 | 0.2 ± 0.1 | 2.4 ± 0.3 |  |  |  |  |  |  |  |  |
| NCC1COCCOCCOCCOCCOCCO1 (centres unmarked) | 9.7 ± 0.5 | 320 ± 110 | 44 ± 0.9 | 59 ± 2.3 | 14 ± 1.3 | 75 ± 40 | 3.9 ± 0.3 | 9.6 ± 0.5 |  |  |  |  |  |  |  |  |
| C1COCCOCCOCCOCCOCCN1 | 9.6 ± 0.9 | 45 ± 20 | 3.8 ± 0.7 | 11 ± 0.3 | 72 ± 0.7 | 100 ± 50 | 2.1 ± 0.4 | 6.0 ± 0.5 |  |  |  |  |  |  |  |  |
| N[C@H]1C(O)O[C@H](CO)[C@@H](O)[C@@H]1O (some centres unmarked) | 11 ± 0.0 | 210 ± 120 | 31 ± 0.7 | 55 ± 1.1 | 330 ± 0.2 | 620 ± 280 | 7.8 ± 0.2 | 25 ± 2.1 |  |  |  |  |  |  |  |  |
| Nc1ccc(O[C@@H]2O[C@H](CO)[C@H](O)[C@H](O)[C@H]2O)cc1 | 17 ± 0.7 | 570 ± 250 | 35 ± 5 | 49 ± 2.3 | 254 ± 10 | 1300 ± 260 | 11 ± 1.5 | 30 ± 3.3 |  |  |  |  |  |  |  |  |
| CNC[C@H](OC)[C@H](OC)[C@H](OC)[C@H](COC)OC | 18 ± 2 | 50 ± 50 | 0.8 ± 0.5 | 2.9 ± 1.4 | 17 ± 40 | 100 ± 70 | 0.4 ± 0.4 | 6.1 ± 4 | 2.9 ±1.4 | 50 ±50 | 0.8 ±0.5 | 18 ±2 | 6.1 ±4 | 0.4 ±0.4 | 100 ±70 | 17 ±40 |
| CN(CCN(C)P(=O)(N(C)C)N(C)C)C(=O)CCCCCCCCCCS [Entry 1a] |  |  |  |  |  |  |  |  | 37 ±2 | 83 ±40 | 13 ±0.2 | 29 ±0.4 | 17 ±0.3 | 4.5 ±0.1 | 330 ±110 | 240 ±2 |
| CC(=O)N1CCN(C(=O)CCCCCCCCCCCCCCCS)CC1 [Entry 2a] |  |  |  |  |  |  |  |  | 2.2 ±0.1 | 22 ±10 | 0.7 ±0.0 | 6.8 ±5 | 0.8 ±0.2 | 0.8 ±0.3 | 100 ±10 | 110 ±0 |
| OCCOCCOCCOCCCCCCCCCCCS [Entry 3a, HOEG3(CH2)11SH, reference compound] |  |  |  |  |  |  |  |  | 0.2 |  | 0.2 |  | 0.2 | 0.2 |  |  |

Results, then the compound that gave them:

| % Fiboff (percent decrease in adsorbed protein during 10 minute PBS wash) (fibrinogen) [%] | dR/dton fibrinogen (maximum initial rate of adsorption) (fibrinogen) [RU/sec] | % MLfib 3 min (fibrinogen) [%] | % MLfib 30 min (fibrinogen) [%] | % Lysoff (percent decrease in adsorbed protein during 10 minute PBS wash) (lysozyme) [%] | dR/dton lysozyme (maximum initial rate of adsorption) (lysozyme) [RU/sec] | % MLlys 3 min (lysozyme) [%] | % MLlys 30 min (lysozyme) [%] | % ML 30 min (fibrinogen) [%] | dR/dt on (fibrinogen) [RU/sec] | % ML 3 min (fibrinogen) [%] | % Fib off (fibrinogen) [%] | % ML 3 min (lysozyme; footnote b (30 minutes)) [%] | % ML 3 min (lysozyme) [%] | dR/dt on (lysozyme) [RU/sec] | % Lys off (lysozyme) [%] | Structure (SMILES) |
| --- | --- | --- | --- | --- | --- | --- | --- | --- | --- | --- | --- | --- | --- | --- | --- | --- |
| 1.8 ± 0.1 | 54 ± 10 | 1.2 ± 0.1 | 3.7 ± 0.0 | 110 ± 5 | 20 ± 2 | 4.5 ± 0.0 | 27 ± 10 |  |  |  |  |  |  |  |  | OCCOCCN1CCNCC1 |
| 38 ± 0.8 | 1200 ± 270 | 51 ± 1.8 | 67 ± 0.9 | 78 ± 1.7 | 1200 ± 270 | 27 ± 3.3 | 83 ± 2.3 |  |  |  |  |  |  |  |  | Nc1ccc(O[C@@H]2O[C@H](CO)[C@@H](O)[C@H](O)[C@H]2O)cc1 |
| 7.4 ± 0.4 | 130 ± 80 | 17 ± 1.4 | 32 ± 0.5 | 190 ± 16 | 290 ± 120 | 3.7 ± 0.1 | 9.3 ± 0.4 |  |  |  |  |  |  |  |  | Nc1ccc(O[C@@H]2O[C@H](CO)[C@@H](O[C@@H]3O[C@H](CO)[C@H](O)[C@H](O)[C@H]3O)[C@H](O)[C@H]2O)cc1 |
| 4.8 ± 2 | 820 ± 500 | 47 ± 12 | 68 ± 7 | 290 ± 3 | 970 ± 400 | 13 ± 7 | 20 ± 0.3 |  |  |  |  |  |  |  |  | NC[C@H](O)[C@H](O)[C@H](O)[C@@H](O)CO |
| 11 ± 0.0 | 260 ± 70 | 34 ± 1.1 | 58 ± 3 | 370 ± 20 | 1900 ± 400 | 13 ± 0.3 | 28 ± 3.7 |  |  |  |  |  |  |  |  | N#CCC(N)=C(C#N)C#N |

Reference: US7494714B2, “Surfaces that resist the adsorption of biological species” (President & Fellows of Harvard College, priority 2000, dated 2009)
